Legend:
CYP2D6 = CYP2D6 (Homo sapiens, UniProt P10635); experiment: CYP inhibition; format: in vitro ADME; conditions: read-out: CYP 2D6 IC50
[1] = system: Ba/F3 cells transfected by RET/PTC3 (NCOA4-RET); experiment: IL-3-independent proliferation of Ba/F3 RET/PTC3 cells; format: cell-based, murine; conditions: Mus musculus, BaF3
Protocol: FIG. 6: Activity of Pz-1 on NCOA4-RET oncogene-driven IL-3-independent proliferation of murine Ba/F3 cells. […] Ba/F3 and Ba/F3 NCOA4-RET cells were incubated with vehicle (NT) or the indicated concentration of Pz-1 in complete medium and counted at different time points. Data are the mean±SD of one experiment performed in triplicate. Murine interleukin-3 (IL-3) dependent pro-B Ba/F3 cells were from ATCC. Ba/F3 cells stably expressing NCOA4-RET (RET/PTC3) protein were generated by transfecting long isoform (RET-51) of NCOA4-RET by electroporation. Parental and Ba/F3-NCOA4-RET cells were cultured in RPMI 1640 with 10% FBS; parental cells required also 10 ng/ml IL-3. IC50 doses (with Confidence Intervals) are indicated.
Nthy-ory-3-1 and TTcells were seeded in 60-mm dishes. Cells were kept in 2% (Nthy-ori-3-1) or 10% (TT) fetal calf serum. One day after plating, different concentrations of Pz-1 or vehicle were added to the medium and changed every 2-3 days. Cells were counted every 2-3 days. […] Parental and RET/PTC-expressing Ba/F3 were kept in 10% fetal calf serum in 6-multi wells and counted every day for 4 consecutive days, changing media every 2 days. […] IC50 doses were calculated through a curve fitting analysis from the last day of growth curves using the PRISM software program (Graphpad Software Inc). […]

PK study in rats = format: in vivo
Protocol: For PK studies of Pz-1 in animals, a solution formulation for oral administration was created in 500 μL of polysorbate 80, 500 μL of EtOH, and 1.0 mL of pH 2 buffer. For the toxicity studies, a suspension formulation was developed in tween 20 (20%) and xanthan gum (0.125%).
T112 (3-4 hrs) in rats was in line with T1/2 in mice (4.2 hrs).

[2] = system: parental NIH3T3 fibroblasts; experiment: Growth of parental NIH3T3 fibroblasts; format: cell-based; conditions: up to 1000 nM, 3 days

Chain of CYP2D6 (P10635 whole entry): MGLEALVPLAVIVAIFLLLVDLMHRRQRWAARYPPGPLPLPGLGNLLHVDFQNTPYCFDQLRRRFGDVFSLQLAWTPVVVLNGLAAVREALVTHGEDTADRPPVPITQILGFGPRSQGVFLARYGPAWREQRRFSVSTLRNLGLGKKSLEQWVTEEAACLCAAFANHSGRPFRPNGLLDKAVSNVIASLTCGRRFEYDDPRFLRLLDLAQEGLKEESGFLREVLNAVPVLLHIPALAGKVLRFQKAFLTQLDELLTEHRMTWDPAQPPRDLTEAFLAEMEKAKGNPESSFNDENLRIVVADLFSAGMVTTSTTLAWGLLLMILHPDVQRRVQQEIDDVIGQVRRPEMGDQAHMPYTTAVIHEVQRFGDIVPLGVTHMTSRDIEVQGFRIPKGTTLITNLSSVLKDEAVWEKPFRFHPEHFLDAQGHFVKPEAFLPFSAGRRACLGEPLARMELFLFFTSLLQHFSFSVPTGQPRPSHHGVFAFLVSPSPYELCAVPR

SMILES: Cn1cc(-c2ccc3c(c2)ncn3-c2ccc(CC(=O)Nc3cc(C(C)(C)C)on3)cc2)cn1 [Pz-1, N-(5-(tert-butyl)isoxazol-3-yl)-2-(4-(5-(1-methyl-1H-pyrazol-4-yl)-1H-benzo[d]imidazol-1-yl)phenyl)acetamide]
- IC50 (CYP2D6): 13.8 µM
- IC50 [1]: 0.00034 µM
- T112 (PK study in rats): 3 to 4 h
- volume distribution (PK study in rats): 2.02 L/kg
- AUC (PK study in rats; 1 mg/kg (IV)): 1.9 µg/h/mL
- AUC (PK study in rats; 10 mg/kg (oral)): 19 µg/h/mL
- bioavaliblity (PK study in rats; oral): 97%
- half-life (PK study in rats; rat, in vivo, 10 mg/kg, oral study, read-out: elimination half-life (converted)): 4.2 h
- clearance (PK study in rats; rat, in vivo, oral, 10 mg/kg): 9 mL/min/kg
- effect on growth [2]: did not significantly reduce growth

— patent publication US9988371B2, “Benzimidazole analogues and related methods” (The Arizona Board of Regents, on Behalf of the University …, priority 2014, dated 2018)
